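Cultured in 96-well plates, cells were exposed to test compound for 48 hours across five concentrations. TGI: concentration producing complete growth inhibition.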
What was measured:
Assay in all cases: growth of human tumour cells (NCI), 48 h
OVCAR-3 ovarian = system: OVCAR-3 ovarian
MDA-MB-231 breast = system: MDA-MB-231 breast
PC-3 prostate = system: PC-3 prostate
UACC-257 melanoma = system: UACC-257 melanoma
SK-MEL-28 melanoma = system: SK-MEL-28 melanoma
OVCAR-8 ovarian = system: OVCAR-8 ovarian
SW-620 colon = system: SW-620 colon
RXF 393 renal = system: RXF 393 renal
OVCAR-4 ovarian = system: OVCAR-4 ovarian
HCT-116 colon = system: HCT-116 colon
SF-268 CNS = system: SF-268 CNS
K-562 leukemia = system: K-562 leukemia
A549 NSCLC = system: A549 NSCLC
HT29 colon = system: HT29 colon
SNB-75 CNS = system: SNB-75 CNS
NCI-H226 lung = system: NCI-H226 lung
MDA-MB-435 = system: MDA-MB-435
M14 melanoma = system: M14 melanoma
NCI-H460 lung = system: NCI-H460 lung
ACHN renal = system: ACHN renal
LOX IMVI melanoma = system: LOX IMVI melanoma
U251 CNS = system: U251 CNS
EKVX NSCLC = system: EKVX NSCLC
COLO 205 colon = system: COLO 205 colon
HOP-62 NSCLC = system: HOP-62 NSCLC
SK-MEL-2 melanoma = system: SK-MEL-2 melanoma
SNB-19 CNS = system: SNB-19 CNS
HL-60(TB) leukemia = system: HL-60(TB) leukemia
IGROV1 ovarian = system: IGROV1 ovarian
HCT-15 colon = system: HCT-15 colon
MALME-3M melanoma = system: MALME-3M melanoma
SK-OV-3 ovarian = system: SK-OV-3 ovarian
SN12C renal = system: SN12C renal
NCI/ADR-RES ovarian = system: NCI/ADR-RES ovarian
OVCAR-5 ovarian = system: OVCAR-5 ovarian
NCI-H522 lung = system: NCI-H522 lung
SF-295 CNS = system: SF-295 CNS
HCC-2998 colon = system: HCC-2998 colon
SR leukemia = system: SR leukemia
T-47D breast = system: T-47D breast
KM12 colon = system: KM12 colon
HS 578T breast = system: HS 578T breast
DU-145 prostate = system: DU-145 prostate
CCRF-CEM leukemia = system: CCRF-CEM leukemia
MDA-N = system: MDA-N
SK-MEL-5 melanoma = system: SK-MEL-5 melanoma
NCI-H23 lung = system: NCI-H23 lung
786-0 renal = system: 786-0 renal
HOP-92 NSCLC = system: HOP-92 NSCLC
SF-539 CNS = system: SF-539 CNS
CAKI-1 renal = system: CAKI-1 renal
A498 renal = system: A498 renal
UO-31 renal = system: UO-31 renal
MCF7 breast = system: MCF7 breast
TK-10 renal = system: TK-10 renal
RPMI-8226 leukemia = system: RPMI-8226 leukemia
MOLT-4 leukemia = system: MOLT-4 leukemia

For `O=c1ccn(C2OC(COC3CCCCO3)C(OC3CCCCO3)C2OC2CCCCO2)c(=O)n1-c1ccccc1` (configuration not stated), the TGI (OVCAR-3 ovarian) was greater than 100 µM, the TGI (MDA-MB-231 breast) was greater than 100 µM and the TGI (PC-3 prostate) was greater than 100 µM. For the same compound, the TGI (UACC-257 melanoma) was greater than 100 µM, the TGI (SK-MEL-28 melanoma) was greater than 100 µM and the TGI (OVCAR-8 ovarian) was greater than 100 µM. The TGI (SW-620 colon) was greater than 100 µM, the TGI (RXF 393 renal) was greater than 100 µM and the TGI (OVCAR-4 ovarian) was greater than 100 µM. It also gave a TGI (HCT-116 colon) greater than 100 µM, a TGI (SF-268 CNS) greater than 100 µM and a TGI (K-562 leukemia) greater than 100 µM. It also gave a TGI (A549 NSCLC) greater than 100 µM, a TGI (HT29 colon) greater than 100 µM and a TGI (SNB-75 CNS) greater than 100 µM. It also gave a TGI (NCI-H226 lung) greater than 100 µM, a TGI (MDA-MB-435) greater than 100 µM and a TGI (M14 melanoma) greater than 100 µM. It also gave a TGI (NCI-H460 lung) greater than 100 µM, a TGI (ACHN renal) greater than 100 µM and a TGI (LOX IMVI melanoma) greater than 100 µM. It also gave a TGI (U251 CNS) greater than 100 µM, a TGI (EKVX NSCLC) greater than 100 µM and a TGI (COLO 205 colon) greater than 100 µM. The TGI (HOP-62 NSCLC) was greater than 100 µM, the TGI (SK-MEL-2 melanoma) was greater than 100 µM and the TGI (SNB-19 CNS) was greater than 100 µM. The TGI (HL-60(TB) leukemia) was greater than 100 µM, the TGI (IGROV1 ovarian) was greater than 100 µM and the TGI (HCT-15 colon) was greater than 100 µM. The TGI (MALME-3M melanoma) was greater than 100 µM, the TGI (SK-OV-3 ovarian) was greater than 100 µM and the TGI (SN12C renal) was greater than 100 µM. It also gave a TGI (NCI/ADR-RES ovarian) greater than 100 µM, a TGI (OVCAR-5 ovarian) greater than 100 µM and a TGI (NCI-H522 lung) greater than 100 µM. It also gave a TGI (SF-295 CNS) greater than 100 µM, a TGI (HCC-2998 colon) greater than 100 µM and a TGI (SR leukemia) greater than 100 µM. For the same compound, the TGI (T-47D breast) was greater than 100 µM, the TGI (KM12 colon) was greater than 100 µM and the TGI (HS 578T breast) was greater than 100 µM. For the same compound, the TGI (DU-145 prostate) was greater than 100 µM, the TGI (CCRF-CEM leukemia) was greater than 100 µM and the TGI (MDA-N) was greater than 100 µM. It also gave a TGI (SK-MEL-5 melanoma) greater than 100 µM, a TGI (NCI-H23 lung) greater than 100 µM and a TGI (786-0 renal) greater than 100 µM. The TGI (HOP-92 NSCLC) was greater than 100 µM, the TGI (SF-539 CNS) was greater than 100 µM and the TGI (CAKI-1 renal) was greater than 100 µM. The TGI (A498 renal) was greater than 100 µM, the TGI (UO-31 renal) was greater than 100 µM and the TGI (MCF7 breast) was greater than 100 µM. For the same compound, the TGI (TK-10 renal) was greater than 100 µM, the TGI (RPMI-8226 leukemia) was greater than 100 µM and the TGI (MOLT-4 leukemia) was greater than 100 µM.
Work on `CCOC(=O)Cn1nc2ccc(Nc3c(C)[n+]([O-])c4cc(F)c(OCC)cc4[n+]3[O-])cc2n1` yielded a TGI (OVCAR-3 ovarian) greater than 100 µM, a TGI (MDA-MB-231 breast) greater than 100 µM and a TGI (PC-3 prostate) greater than 100 µM. For the same compound, the TGI (UACC-257 melanoma) was greater than 100 µM, the TGI (SK-MEL-28 melanoma) was greater than 100 µM and the TGI (OVCAR-8 ovarian) was greater than 100 µM. The TGI (SW-620 colon) was greater than 100 µM, the TGI (RXF 393 renal) was 51.9 µM and the TGI (OVCAR-4 ovarian) was greater than 100 µM. For the same compound, the TGI (HCT-116 colon) was greater than 100 µM, the TGI (SF-268 CNS) was greater than 100 µM and the TGI (K-562 leukemia) was greater than 100 µM. For the same compound, the TGI (HT29 colon) was greater than 100 µM, the TGI (NCI-H226 lung) was greater than 100 µM and the TGI (MDA-MB-435) was greater than 100 µM. It also gave a TGI (M14 melanoma) greater than 100 µM, a TGI (NCI-H460 lung) greater than 100 µM and a TGI (ACHN renal) of 90.2 µM. It also gave a TGI (LOX IMVI melanoma) greater than 100 µM, a TGI (U251 CNS) greater than 100 µM and a TGI (EKVX NSCLC) greater than 100 µM. It also gave a TGI (HOP-62 NSCLC) greater than 100 µM, a TGI (SK-MEL-2 melanoma) greater than 100 µM and a TGI (HL-60(TB) leukemia) greater than 100 µM. The TGI (IGROV1 ovarian) was greater than 100 µM, the TGI (HCT-15 colon) was greater than 100 µM and the TGI (SK-OV-3 ovarian) was greater than 100 µM. It also gave a TGI (NCI/ADR-RES ovarian) greater than 100 µM, a TGI (OVCAR-5 ovarian) greater than 100 µM and a TGI (NCI-H522 lung) greater than 100 µM. The TGI (SF-295 CNS) was greater than 100 µM, the TGI (SR leukemia) was greater than 100 µM and the TGI (T-47D breast) was greater than 100 µM. It also gave a TGI (KM12 colon) greater than 100 µM, a TGI (HS 578T breast) greater than 100 µM and a TGI (DU-145 prostate) greater than 100 µM. For the same compound, the TGI (CCRF-CEM leukemia) was greater than 100 µM, the TGI (MDA-N) was greater than 100 µM and the TGI (SK-MEL-5 melanoma) was greater than 100 µM. It also gave a TGI (NCI-H23 lung) greater than 100 µM, a TGI (786-0 renal) greater than 100 µM and a TGI (HOP-92 NSCLC) of 63.8 µM. The TGI (SF-539 CNS) was greater than 100 µM, the TGI (CAKI-1 renal) was greater than 100 µM and the TGI (A498 renal) was greater than 100 µM. It also gave a TGI (UO-31 renal) greater than 100 µM, a TGI (MCF7 breast) greater than 100 µM and a TGI (TK-10 renal) of 71.8 µM. The TGI (RPMI-8226 leukemia) was greater than 100 µM and the TGI (MOLT-4 leukemia) was greater than 100 µM.

Source: PubChem BioAssay (NCI)
